Results: patent publication US11576979B2, “Pyrrolobenzodiazepine prodrugs and antibody conjugates thereof” (GENENTECH, INC., priority 2016, dated 2023)
pEC50, pIC50: −log10 of the molar value. Read-outs that look alike come from different tables or passages of the source.

Columns and labels:
Type in all cases: cell-based
WSU-DLCL2 = test: CELLTITER GLO cell proliferation assay (Example 6); conditions: data in parenthesis = repeat evaluations, read-out: IC50 potency WSU-DLCL2
Summary of the method: (§1)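 Cells seeded at about 8000 (WSU-DLCL2) or 4000 (KPL-4) per well in RPMI-1640 with 10% FBS, 2 mM glutamine, 50 uM cystine and 0.015 g/L L-methionine; 10-point 1:3 dose-response in triplicate, cultured at 37° C., 5% CO2. Viability read by CellTiter-Glo luminescence, normalized to no-compound minus no-cell controls.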

KPL-4 = test: CELLTITER GLO cell proliferation assay (Example 6); conditions: data in parenthesis = repeat evaluations, read-out: IC50 potency KPL-4
Summary of the method: as §1

WSU Cell line = test: Cell viability, DTD-activated quinone prodrugs (Example 15); conditions: WSU Cell line (low DTD); Table 10; read-out: IC50 Potency
Procedure: (§2) The toxicity of PBD dimer diaphorase prodrug 1, PBD monomer diaphorase prodrug 2, PBD dimer control 1 and PBD monomer control 1 were evaluated against KPL-4 and WSU cell lines for cell viability. The KPL-4 cell line is was a high DTD cell line characterized by NQO1 nRPKM of 839 and the WSU cell line was a low DTD cell line characterized by a NQO1 nRPKM of 1.36. The IC50 ratios are based on the prodrug IC50 value relative to the PBD dimer control.

KPL-4 Cell line = test: as above; conditions: KPL4; KPL-4 Cell line (high DTD); Table 10; read-out: IC50 Potency
Procedure: as §2

SK-BR-3 = test: CellTiter-Glo toxicity, 3 days (Example 7); conditions: Homo sapiens, SK-BR-3, 72 h; 3 days; read-out: SK-BR-3 IC50
Procedure: The toxicity of PBD monomer disulfide prodrugs 1 to 4, PBD dimer disulfide prodrugs 1 and 4, PBD monomer control 1 and PBD dimer control 1 were evaluated against SK-BR-3 cell cultures. […] The HER2-positive breast cancer cell line, SK-BR-3, was obtained internally at Genentech after having been verified by sequence analysis. The cells were grown at 37 Celsius in DMEM+10% FBS supplemented with 2 mM L-glutamine for the duration of this assay. On the first day of the experiment, designated “Day −1”, SK-BR-3 cells were harvested from tissue culture flasks, counted, and then seeded into 96-well plates at a concentration of 7,500 cells per well. The next day, designated “Day 0”, cell culture media was removed from the cells and replaced with 100 uL of fresh media containing a serial dilution (1:3) of the compounds in Table 5 below. The plates were then returned to the 37 Celsius incubator and allowed to incubate for 3 days. On “Day 3” of the assay, the plates were removed from the incubator and allowed to equilibrate to room temperature before adding 100 uL of room-temperature CellTiter-Glo reagent (Promega). The plates were then agitated at 300 rpm for 10 minutes. The luminescence signal generated from this reaction was recorded on an Envision plate reader (Perkin-Elmer). The data were arranged in Excel (Microsoft) and graphed in Kaleidagraph (Synergy Software).

[1] = tested on: MDA-MB-453 tumor cell line; test: in vitro tumor cell killing assay, 3 days (Example 13); conditions: Homo sapiens, 72 h; MDA-MB-453; 3 days; read-out: EC50
Procedure: The toxicity of various PBD monomer and dimer boronic acid prodrug compounds were evaluated for cell toxicity. In the in vitro tumor cell killing assay, the cells were added to each well of 96-well microtiter plates at 8,000 cells per well and were incubated overnight at 37° C. in a humidified atmosphere of 5% CO2. The cells were exposed to various concentration of the indicated prodrug, positive control and negative control compounds. Where silvestrol was evaluated, a 1:3 serial dilution was used. After incubation for 3 days, Cell titer-Glo reagent (Promega, Madison Wis.) was added to the wells at 100 μL per well followed by a 10-minute incubation at room temperature, and the luminescent signal was measured using a Packard/Perkin-Elmer TopCount.
The toxicity of PBD monomer boronic acid prodrug 1 was evaluated against MDA-MB-453 tumor cell line for cell viability. PBD monomer control 1 was used as a positive control and PBD monomer control 2 was used as a negative control. The toxicity study was repeated wherein the PBD prodrug and controls were administered in combination with silvestrol. FIG. 15C depicts a plot of MDA-MB-453 cell kill versus drug concentration in μM three days after exposure to: (i) a PBD monomer control; (ii) a PBD monomer control having a benzyl formate moiety at the N10 PBD position; and (iii) a PBD monomer boronic acid prodrug. […]

C=C1C[C@H]2C=Nc3cc(OC)c(OC)cc3C(=O)N2C1 [PBD monomer control 1, reference compound]
pIC50 (WSU-DLCL2; Homo sapiens, WSUDLCL2, Table 4): 6.98 | pIC50 (WSU-DLCL2; Table 4): 6.96 | pIC50 (KPL-4; KPL4, Table 4): 6.48 | pIC50 (KPL-4; Table 4): 6.62 | pIC50 (WSU Cell line): 6.98 | pIC50 (KPL-4 Cell line): 6.48 | pIC50 (SK-BR-3): 6.91 | pEC50 [1]: 6.79
